Source: paper PMC8847575, “HSL1 and BAM1/2 impact epidermal cell development by sensing distinct signaling peptides” (Nature Communications, 2022)
Values belong to the compound of their own block, whether it stands above or below them. Square brackets hold non-standard residues; d marks the D form. Peptide text beside a SMILES is read from it. Hyp = O=C(O)[C@@H]1C[C@@H](O)CN1

How the values were obtained:
[1] = molecular target: HSL1 (HAESA-LIKE 1) ectodomain (Arabidopsis) (UniProt Q9SGP2); test: ITC; peptide (75 to 600 µM) injected into 10 to 30 µM HSL1 or BAM1 ectodomain in the cell; 25 °C; 20 mM sodium citrate pH 5.0, 150 mM NaCl; N fitted to 1
HSL1 ectodomain [2] = molecular target: T1, HSL1 ectodomain (Arabidopsis thaliana, UniProt Q9SGP2); test: GCI binding kinetics, peptide vs immobilised HSL1; conditions: HSL1 on surface, peptide as analyte, 25 °C, pH 5, one-to-one binding model, read-out: ka association rate constant, peptide vs HSL1 (GCI)
T1 construct: HSL1 (residues 17-618, AT1G28440); azurocidin or Drosophila BIP signal peptide (secretion signal) (N); made in house; host or cells: Trichoplusia ni Tnao38 insect cells (baculovirus)
T1 sequence (Q9SGP2 17-618): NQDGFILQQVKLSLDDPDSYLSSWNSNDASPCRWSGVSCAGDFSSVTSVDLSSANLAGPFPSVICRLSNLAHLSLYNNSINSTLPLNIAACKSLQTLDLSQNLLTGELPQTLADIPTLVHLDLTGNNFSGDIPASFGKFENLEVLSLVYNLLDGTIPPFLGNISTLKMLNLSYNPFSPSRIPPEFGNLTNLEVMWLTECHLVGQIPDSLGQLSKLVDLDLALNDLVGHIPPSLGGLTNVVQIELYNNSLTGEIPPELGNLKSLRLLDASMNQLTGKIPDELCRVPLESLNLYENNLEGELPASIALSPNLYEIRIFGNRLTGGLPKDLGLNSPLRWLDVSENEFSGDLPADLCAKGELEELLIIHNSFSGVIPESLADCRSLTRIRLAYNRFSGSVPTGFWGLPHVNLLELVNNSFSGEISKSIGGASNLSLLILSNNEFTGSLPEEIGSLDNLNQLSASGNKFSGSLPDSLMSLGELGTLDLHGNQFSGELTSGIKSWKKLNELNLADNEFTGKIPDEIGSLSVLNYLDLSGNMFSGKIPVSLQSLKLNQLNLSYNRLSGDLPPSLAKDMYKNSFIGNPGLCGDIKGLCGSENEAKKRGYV
Procedure: 25 μM of HSL1 were biotinylated with the biotin ligase BirA[60] (2 μM) for 1 h at 30 °C, in a volume of 200 μl. The buffer used in the reaction was: 25 mM Tris pH 8, 150 mM NaCl, 5 mM MgCl2, 2 mM 2-Mercaptoethanol, 0.15 mM Biotin, 2 mM ATP. Biotinylated proteins were purified by size-exclusion chromatography in 20 mM citric acid pH5, 150 mM NaCl and subsequently used in GCI experiments.
GCI experiments were performed with the Creoptix WAVE system (Creoptix AG, Switzerland) using 4PCP WAVE chips (thin quasiplanar polycarboxylate surface; Creoptix, Switzerland). Chips were first conditioned with borate buffer (100 mM sodium borate pH 9.0, 1 M NaCl; Xantec, Germany). Chips were activated with 1:1 mix of 400 mM N-(3-dimethylaminopropyl)-N′-ethylcarbodiimide hydrochloride and 100 mM N-hydroxysuccinimide (Xantec, Germany). Streptavidin (50 µg/ml; Sigma, Germany) in 10 mM sodium acetate pH 5.0 (Sigma, Germany) was immobilized on the chip surface until saturation was reached, followed by passivation of the surface with BSA (50 µg/ml; Sigma, Germany) in 10 mM sodium acetate pH5.0, and a final quenching step with 1 M ethanolamine pH 8.0 (Xantec, Germany). Then, biotinylated HSL1 (ligand) (80–100 μg/ml) was captured on the streptavidin surface until the desired density was reached. Normal kinetic analysis were performed to measure the binding of IDL peptides (analyte) to HSL1. Experiments were performed at 25 °C with a 1:2 dilution series from a maximum concentration of 5–50 μM peptide, in 20 mM citrate pH 5, 250 mM NaCl, 0.005% Tween-20 v/v. To analyze the interaction kinetics of the co-receptor SERK1, 2 µM of the protein was used as a higher dilution with running buffer containing 5 µM of the IDL peptides being tested. Blank injections were used for double referencing and a dimethylsulfoxide (DMSO) calibration curve for bulk correction. Analysis and correction of the obtained data were performed using the Creoptix WAVE control software (correction applied: X and Y offset; DMSO calibration; double referencing). One-to-one binding model was used for both experiments.

BAM1 LRR ectodomain = molecular target: T2, BAM1 LRR ectodomain (Arabidopsis thaliana, UniProt O49545); test: ITC, peptide titrated into BAM1 ectodomain; type: binding
T2 construct: BAM1 (residues 20–637, AT5G65700); azurocidin or Drosophila BIP signal peptide (secretion signal) (N); made in house; host or cells: Trichoplusia ni Tnao38 insect cells (baculovirus)
T2 sequence (O49545 20-637): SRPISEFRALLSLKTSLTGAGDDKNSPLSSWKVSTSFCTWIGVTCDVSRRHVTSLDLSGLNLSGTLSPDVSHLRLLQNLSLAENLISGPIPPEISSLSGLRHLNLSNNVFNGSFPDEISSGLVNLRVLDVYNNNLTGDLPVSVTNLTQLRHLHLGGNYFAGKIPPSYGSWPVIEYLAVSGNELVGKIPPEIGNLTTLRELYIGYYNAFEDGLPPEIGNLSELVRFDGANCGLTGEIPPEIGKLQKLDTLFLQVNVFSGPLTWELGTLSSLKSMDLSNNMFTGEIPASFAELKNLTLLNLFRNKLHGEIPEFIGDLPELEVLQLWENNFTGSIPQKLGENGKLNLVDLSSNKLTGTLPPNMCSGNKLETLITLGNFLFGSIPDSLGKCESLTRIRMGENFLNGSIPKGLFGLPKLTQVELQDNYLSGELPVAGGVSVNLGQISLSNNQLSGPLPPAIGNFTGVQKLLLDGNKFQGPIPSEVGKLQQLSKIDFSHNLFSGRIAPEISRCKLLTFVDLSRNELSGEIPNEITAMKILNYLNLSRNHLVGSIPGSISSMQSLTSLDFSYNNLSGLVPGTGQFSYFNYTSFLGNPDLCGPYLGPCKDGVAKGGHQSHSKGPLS
Excerpt: All genes used for protein expression in Trichoplusia ni Tnao38 cells[46] were codon optimized and cloned into a modified pFastBac vector (Geneva Biotech) providing an azurocidin[47] or Drosophila BIP signal peptide, a TEV (tobacco etch virus protease) cleavage site and a Strep-9xHis tandem affinity tag at their carboxy terminus. The genes used are coding for the Arabidopsis ectodomains of HSL1 (residues 17-618, AT1G28440), HAE (residues 20-620, AT4G28490) SERK1 (residues 24–213, AT1G71830), and BAM1 (residues 20–637, AT5G65700). To perform Grating-coupled interferometry (GCI) experiments, HSL1 was fused to a non-cleavable Avi-tag[49],[50]. Baculovirus generation was carried out in DH10 cells and virus amplification was done in Spodoptera frugiperda Sf9 cells. For protein expression, Trichoplusia ni Tnao38 cells were infected with HAE, HSL1, BAM1 and SERK1 virus with a multiplicity of infection (MOI) of 3. The cells were grown 1 day at 28 °C and two days at 22 °C at 110 rpm. After every expression round, secretion of our proteins was detected using an anti-His-HRP conjugated antibody from Roche (Ref:11965085001) in a 1:2000 dilution. […] Next, affinity tags were removed by incubating the purified proteins with recombinant His-tagged TEV protease, in a 1:50 ratio. The cleaved tag and the protease were separated from the ectodomains by a second Ni^2+ affinity step. Proteins were further purified by size-exclusion chromatography on a Superdex 200 Increase 10/300 GL column (GE Healthcare) equilibrated in 20 mM citric acid pH 5.0, 150 mM NaCl. Peak fractions containing the single proteins or complexes were concentrated using Amicon Ultra concentrators (Millipore, MWCO 10,000 for SERK1 and 30,000 for HAE, HSL1, and BAM1) and used for crystallization or biochemical experiments. Proteins were analyzed for purity and structural integrity by SDS-PAGE.
Experiments were performed at 25 °C using a MicroCal PEAQ-ITC (Malvern Instruments) with a 200 µL standard cell and a 40 μL titration syringe. HSL1, BAM1, and SERK1 proteins were gel-filtrated into the ITC buffer (20 mM sodium citrate pH 5.0, 150 mM NaCl). Molar protein concentrations for HSL1, BAM1, and SERK1 were calculated using their molar extinction coefficient and a molecular weight of 74,896 and 27,551 Da, respectively as previously determined. A typical experiment consisted of injecting 2 μL of a range between 75 and 600 μM solution of ligand into 10 to 30 μM HAE, HSL1, or BAM1 solution in the cell at 150 s intervals and 500 rpm stirring speed. The SERK1 vs HAE/HSL1-peptide experiments were performed by titrating 100 µM SERK1 in the cell, using the same injection pattern. ITC data were corrected for the heat of dilution by subtracting the mixing enthalpies for titrant solution injections into protein-free ITC buffer. Experiments were done in duplicates or triplicates, otherwise specified, and data were analyzed using the MicroCal PEAQ-ITC Analysis Software provided by the manufacturer. […] The N values were fitted to 1 in the analysis.

HSL1 ectodomain [3] = molecular target: T1, HSL1 ectodomain; test: ITC, peptide titrated into isolated HSL1 ectodomain; conditions: peptide (syringe) into HSL1 ectodomain (cell), 25 °C, 20 mM sodium citrate pH 5.0, 150 mM NaCl, N fitted to 1, mean ± SD of at least two independent experiments, n.d = no binding detected
Excerpt: All genes used for protein expression in Trichoplusia ni Tnao38 cells[46] were codon optimized and cloned into a modified pFastBac vector (Geneva Biotech) providing an azurocidin[47] or Drosophila BIP signal peptide, a TEV (tobacco etch virus protease) cleavage site and a Strep-9xHis tandem affinity tag at their carboxy terminus. The genes used are coding for the Arabidopsis ectodomains of HSL1 (residues 17-618, AT1G28440), HAE (residues 20-620, AT4G28490) SERK1 (residues 24–213, AT1G71830), and BAM1 (residues 20–637, AT5G65700). To perform Grating-coupled interferometry (GCI) experiments, HSL1 was fused to a non-cleavable Avi-tag[49],[50]. […] After every expression round, secretion of our proteins was detected using an anti-His-HRP conjugated antibody from Roche (Ref:11965085001) in a 1:2000 dilution. […] Proteins were analyzed for purity and structural integrity by SDS-PAGE.
Experiments were performed at 25 °C using a MicroCal PEAQ-ITC (Malvern Instruments) with a 200 µL standard cell and a 40 μL titration syringe. […] Molar protein concentrations for HSL1, BAM1, and SERK1 were calculated using their molar extinction coefficient and a molecular weight of 74,896 and 27,551 Da, respectively as previously determined. […] Experiments were done in duplicates or triplicates, otherwise specified, and data were analyzed using the MicroCal PEAQ-ITC Analysis Software provided by the manufacturer. […]

fold reduction of binding affinity against wild-type IDA [1]: 15 fold
Compound: IDA^K66AR67AH68A peptide (from UniProt Q8LAD7 58-69)

Compound: CC[C@H](C)[C@H](NC(=O)[C@@H]1CCCN1)C(=O)N1CCC[C@H]1C(=O)N1CCC[C@H]1C(=O)N[C@@H](CO)C(=O)N[C@@H](C)C(=O)N1C[C@H](O)C[C@H]1C(=O)N[C@@H](CO)C(=O)N[C@@H](CCCCN)C(=O)N[C@@H](CCCNC(=N)N)C(=O)N[C@@H](Cc1c[nH]cn1)C(=O)N[C@@H](CC(N)=O)C(=O)O [IDA, INFLORESCENCE DEFICIENT IN ABSCISSION] (H-PIPPSA[Hyp]SKRHN-OH)
kon (HSL1 ectodomain [2]): 225000 M⁻¹ s⁻¹
Kd (dissociation constant), peptide vs BAM1 (BAM1 LRR ectodomain; ITC, peptide into BAM1 ectodomain (cell), 25 °C, 20 mM sodium citrate pH 5.0, 150 mM NaCl, N fitted to 1, mean ± SD of at least two independent experiments, n.d = no binding detected): did not detect interaction

Compound: CC(C)C[C@H](NC(=O)[C@@H](N)CCCNC(=N)N)C(=O)N[C@H](C(=O)N1C[C@H](O)C[C@H]1C(=O)N[C@@H](CO)C(=O)NCC(=O)N1C[C@H](O)C[C@H]1C(=O)N[C@@H](CC(N)=O)C(=O)N1CCC[C@H]1C(=O)N[C@@H](CC(C)C)C(=O)N[C@@H](Cc1c[nH]cn1)C(=O)N[C@@H](CC(N)=O)C(=O)O)C(C)C [CLE9] (H-RLV[Hyp]SG[Hyp]NPLHN-OH)
Kd (dissociation constant), peptide vs HSL1 (HSL1 ectodomain [3]): did not detect binding
Kd (BAM1 LRR ectodomain): 94 ± 56 nM

kon (HSL1 ectodomain [2]): 700000 M⁻¹ s⁻¹
Compound: CC(C)[C@H](NC(=O)[C@@H]1CCCN1)C(=O)N1CCC[C@H]1C(=O)N[C@H](C(=O)N[C@@H](CO)C(=O)NCC(=O)N1C[C@H](O)C[C@H]1C(=O)N[C@@H](CO)C(=O)N[C@@H](CCCNC(=N)N)C(=O)N[C@@H](CCCCN)C(=O)N[C@@H](Cc1c[nH]cn1)C(=O)N[C@@H](CC(N)=O)C(=O)O)[C@@H](C)O [IDL3, IDA-LIKE] (H-PVPTSG[Hyp]SRKHN-OH)
